We go through 5 molecules from patent US9937153B2, “Oral pharmaceutical formulation of omarigliptin” (Merck Sharp & Dohme Corp., priority 2013, dated 2018).

A short description of series [1]: Comparative salt stability of pharmaceutical formulations after 1 week. It is filed as physicochemical. The note with it: formulation as in Example 3. The protocol:
Samples were made with 1% Citric Acid or Na2CO3 by first coating a mortar with mannitol. Omarigliptin was then triturated using the mortar and pestle with 0.1000 g mannitol then with 0.1000 g mannitol & 0.1000 g citric acid or Na2CO3 and then with equal amounts mannitol. The triturate was added to the remaining ingredients and blended initially with mortar and pestle and then transferred into a glass bottle and blended with a blender at medium speed for 15 mins. Magnesium stearate was passed through a 250 micron screen and the required quantity was dispensed and added to the powders in the bottle. The mixture was blended for 1 minute at medium speed. Tablets were compressed using a press having ¼″ normal concave punches at 100 mg unit weight:
Fumarate, phosphate and hydrochloride salts of omarigliptin were made and used in the manufacture of pharmaceutical formulations as described in Example 3. The pharmaceutical formulations containing the fumerate, phosphate and hydrochloride salts of omarigliptin as well as pharmaceutical formulations containing the free base were tested under various conditions for stability.

A short description of series [2]: Formulation work on chemical stability of omarigliptin. It is filed as physicochemical. The source says:
One concern with developing an oral pharmaceutical formulation of omarigliptin is the chemical stability of the compound. […] Also omarigliptin stability is critically sensitive to drug loading with lower drug loadings becoming increasingly unstable in any formulation drug product. […] This degradation process with respect to free amines is described in Robertson et al., Maillard's Reaction and its Impliations for Amine Drugs in the Pharmaceutical Industry, Digital Edition of American Pharmaceutical Review, Volume 15, Issue 3, April 2012.

Consider `CS(=O)(=O)n1cc2c(n1)CN([C@H]1CO[C@H](c3cc(F)ccc3F)[C@@H](N)C1)C2` [Free Base I, (2R,3S,5R)-2-(2,5-Difluorophenyl)-5-[2-(methylsulfonyl)-2,6-dihydropyrrolo[3,4-c]pyrazol-5(4H)-yl]tetrahydro-2H-pyran-3-amine], for which, in series [1] (5° C./50% RH closed), the “% Area” value is on record as 98.8% and the “% LC” value is 88.5%. In series [1] (50° C./75% RH/open), the “% Area” value was 97.1%, the “% LC” value was 82.0% and the “Total Degs. (Area %)” value turned out to be 1.7 Area %. In addition, in series [1] (50° C./closed), the “% Area” value is 97.9%, the “% LC” value is reported as 85.9% and the “Total Degs. (Area %)” value amounted to 0.9 Area %.

Consider `CS(=O)(=O)n1cc2c(n1)CN([C@H]1CO[C@H](c3cc(F)ccc3F)[C@@H](N)C1)C2.O=C(O)/C=C/C(=O)O` [Fumerate], for which, in series [1] (5° C./50% RH closed), the “% Area” value amounted to 95.9% and the “% LC” value is 79.6%. In series [1] (50° C./75% RH/open), the “% Area” value is 93.8%, the “% LC” value is on record as 69.5% and the “Total Degs. (Area %)” value came out at 2.0 Area %. For the same molecule, in series [1] (50° C./closed), the “% Area” value is on record as 94.3%, the “% LC” value worked out at 75.9% and the “Total Degs. (Area %)” value worked out at 1.6 Area %.

In the case of `CS(=O)(=O)n1cc2c(n1)CN(C1COC(c3cc(F)ccc3F)C(N)C1)C2.Cl` (centres unmarked) [HCl], in series [1] (5° C./50% RH closed), the “% Area” value was 98.69% and the “% LC” value is reported as 75.5%. Further, in series [1] (50° C./75% RH/open), the “% Area” value came out at 95.3%, the “% LC” value is 62.5% and the “Total Degs. (Area %)” value came out at 3.6 Area %. For the same molecule, in series [1] (50° C./closed), the “% Area” value is 97.6%, the “% LC” value is listed as 71.8% and the “Total Degs. (Area %)” value is on record as 1.3 Area %.

With `CS(=O)(=O)n1cc2c(n1)CN([C@H]1CO[C@H](c3cc(F)ccc3F)[C@@H](N)C1)C2` [omarigliptin, (2R,3S,5R)-2-(2,5-Difluorophenyl)-5-[2-(methylsulfonyl)-2,6-dihydropyrrolo[3,4-c]pyrazol-5(4H)-yl]tetrahydro-2H-pyran-3-amine], in series [2], the sensitivity to oxidation entry is reported as “sensitive to oxidation”. In series [2] (early formulation work), the “sensitivity to acid and base catalyzed hydrolysis” value is “sensitive to acid and base catalyzed hydrolysis”. Moreover, in series [2] (with excipients or other impurities that contain reducible sugar impurities), the “sensitivity to Maillard degradation (browning)” value is reported as “sensitive to Maillard degradation”.

Take Phosphate: in series [1] (5° C./50% RH closed), the “% Area” value was determined as 96.8% and the “% LC” value is listed as 76.5%. In series [1] (50° C./75% RH/open), the “% Area” value is recorded as 92.0%, the “% LC” value is 54.4% and the “Total Degs. (Area %)” value is on record as 4.8 Area %. Besides, in series [1] (50° C./closed), the “% Area” value amounted to 94.0%, the “% LC” value was 70.8% and the “Total Degs. (Area %)” value stood at 2.9 Area %.
